This passage reports IC50 results from patent US20220332699A1 (SAGE THERAPEUTICS, INC., priority 2019, published 2022).

The IC50 is the point on the concentration scale where inhibition reaches its midpoint.

CYP46A1, sequence (Q9Y6A2 whole entry): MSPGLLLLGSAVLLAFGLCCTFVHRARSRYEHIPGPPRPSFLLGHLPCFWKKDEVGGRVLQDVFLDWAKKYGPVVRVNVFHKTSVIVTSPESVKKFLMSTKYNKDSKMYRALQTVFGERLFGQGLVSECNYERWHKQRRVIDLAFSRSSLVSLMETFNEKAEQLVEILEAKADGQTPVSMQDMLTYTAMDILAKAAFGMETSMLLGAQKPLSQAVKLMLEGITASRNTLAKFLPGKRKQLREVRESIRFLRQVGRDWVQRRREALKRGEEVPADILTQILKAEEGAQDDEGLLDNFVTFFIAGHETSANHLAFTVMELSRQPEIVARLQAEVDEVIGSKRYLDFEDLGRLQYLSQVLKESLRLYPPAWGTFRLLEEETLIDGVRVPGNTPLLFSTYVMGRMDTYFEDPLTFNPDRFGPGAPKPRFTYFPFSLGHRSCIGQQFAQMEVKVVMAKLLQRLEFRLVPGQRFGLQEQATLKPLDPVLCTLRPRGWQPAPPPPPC

This assay concerns the target CYP46A1 (Homo sapiens, UniProt Q9Y6A2). Description: CYP46A1 Enzyme Assay 2 (testosterone substrate, HPLC-MS). It counts as biochemical. The settings on record: read-out: IC50 (CYP46A1 inhibitory activity). The method, then: Briefly, in a 384-well plate format, 10 μL per well of an enzyme-substrate mixture of CYP46A1 (5 μM final concentration) and Testosterone ([…] final concentration) were dispensed to wells containing test compound. For CYP46A1 titration, 5 μL per well of serially diluted CYP46A1 (concentrations including 10 μM, 5 μM, and 2.5 μM) and Testosterone (concentration of […]) were dispensed. For Testosterone titration, 5 μL per well of serially diluted Testosterone (concentrations including 10 μM, 5 μM, and 2.5 μM) and CYP46A1 (concentration of 5 μM) were dispensed. The plates were centrifuged at 1000 rpm for 30 seconds, and then sealed and incubated at 37° C. for 30 minutes. The plate was removed from the incubator, and then 10 μL per well of NADPH-generating system were dispensed to initiate the reaction. The plates were incubated at 37° C. for 15 minutes, added with 80 μL per well of 100% methanol consisting 1 ng/ml diclofenac as internal standard, and then transferred for HPLC-MS.
`CC(c1cc(F)cc(F)c1)C1(C#N)CCN(C(=O)c2cccnc2-c2ccncn2)CC1` (stereo in doubt) [Compound A258, (R)-4-(1-(3,5-difluorophenyl)ethyl)-1-(2-(pyrimidin-4-yl)nicotinoyl)piperidine-4-carbonitrile]: the IC50 was below 100 nM.

As for `N#CC1(Cc2ccc(F)cc2F)CCN(C(=O)c2cccnc2-c2ccncc2)CC1` [Compound A284, 1-([2,4′-bipyridine]-3-carbonyl)-4-(2,4-difluorobenzyl)piperidine-4-carbonitrile], the IC50 is below 100 nM.

As to `N#CC1(Cc2cc(C(F)(F)F)ccc2F)CCN(C(=O)c2cccnc2-c2ccncc2)CC1` [Compound A283, 1-([2,4′-bipyridine]-3-carbonyl)-4-(2-fluoro-5-(trifluoromethyl)benzyl)piperidine-4-carbonitrile], the IC50 is below 100 nM.

`N#CC1(Cc2ccc(F)cc2)CCN(C(=O)c2cc(C(F)(F)F)ccc2-c2ccncn2)CC1` [Compound A227, 4-(4-fluorobenzyl)-1-(2-(pyrimidin-4-yl)-5-(trifluoromethyl)benzoyl)piperidine-4-carbonitrile]: the half-maximal inhibitory concentration (IC50) is below 100 nM.

Turning to `N#CC1(Cc2ccc(C(F)(F)F)cc2)CCN(C(=O)c2cccnc2-c2ccncc2)CC1` [Compound A285, 1-([2,4′-bipyridine]-3-carbonyl)-4-(4-(trifluoromethyl)benzyl)piperidine-4-carbonitrile], the IC50 was below 100 nM.

Consider `N#CC1(Cc2ccccc2C(F)(F)F)CCN(C(=O)c2cccnc2-c2ccncn2)CC1` [Compound A262, 1-(2-(pyrimidin-4-yl)nicotinoyl)-4-(2-(trifluoromethyl)benzyl)piperidine-4-carbonitrile], for which the IC50 was below 100 nM.

In the case of `CC(c1cc(F)cc(F)c1)C1(C#N)CCN(C(=O)c2cccnc2-c2ccncc2)CC1` (stereo in doubt) [Compound A259, (S)-1-([2,4′-bipyridine]-3-carbonyl)-4-(1-(3,5-difluorophenyl)ethyl)piperidine-4-carbonitrile], the IC50 was below 100 nM.

For the compound `N#CC1(CCCCc2ccccc2)CCN(C(=O)c2cccnc2-c2ccncc2)CC1` [Compound A67, 1-([2,4′ bipyridine]-3-carbonyl)-4-(4-phenylbutyl)piperidine-4-carbonitrile], the concentration for half-maximal inhibition (IC50) is below 100 nM.

For `COc1ccc(CC2(C#N)CCN(C(=O)c3cccnc3-c3ccncn3)CC2)cc1` [Compound A63, 4-(4-methoxybenzyl)-1-(2-(pyrimidin-4-yl)nicotinoyl)piperidine-4-carbonitrile], the concentration for half-maximal inhibition (IC50) was below 100 nM.

Regarding `N#CC1(Cc2ccc(F)cc2)CCN(C(=O)c2cccnc2-n2cncn2)CC1` [Compound A74, 1-(2-(1H-1,2,4-triazol-1-yl)nicotinoyl)-4-(4-fluorobenzyl)piperidine-4-carbonitrile], the IC50 was above 1000 nM.

As to `C[C@@H](c1ccc(C(F)(F)F)cc1)C1(C#N)CCN(C(=O)c2cccnc2-c2ccncn2)CC1` [Compound A250, (S)-1-(2-(pyrimidin-4-yl)nicotinoyl)-4-(1-(4-(trifluoromethyl)phenyl)ethyl)piperidine-4-carbonitrile], the half-inhibitory concentration (IC50) is below 100 nM.

Consider `N#CC1(Cc2ccccc2)CCN(C(=O)c2cccnc2-c2ccncn2)CC1` [Compound A31, 4-benzyl-1-(2-(pyrimidin-4-yl)nicotinoyl)piperidine-4-carbonitrile], for which the IC50 was below 100 nM.

In the case of `N#CC1(Cc2ccc(F)cc2)CCN(C(=O)c2cccnc2-c2ncncc2F)CC1` [Compound A233, 4-(4-fluorobenzyl)-1-(2-(5-fluoropyrimidin-4-yl)nicotinoyl)piperidine-4-carbonitrile], the IC50 is above 1000 nM.

Consider `N#CC1(Cc2ccc(OC(F)(F)F)cc2)CCN(C(=O)c2cccnc2-c2ccncc2)CC1` [Compound A10, 1-([2,4′-bipyridine]-3-carbonyl)-4-(4-(trifluoromethoxy)benzyl)piperidine-4-carbonitrile], for which the IC50 was below 100 nM.

In the case of `N#CC1(Cc2ccc(Cl)cc2)CCN(C(=O)c2cccnc2-c2ccncn2)CC1` [Compound A37, 4-(4-chlorobenzyl)-1-(2-(pyrimidin-4-yl)nicotinoyl)piperidine-4-carbonitrile], the IC50 is below 100 nM.

`CC(c1cc(F)cc(F)c1)C1(C#N)CCN(C(=O)c2cccnc2-c2ccncc2)CC1` (stereo in doubt) [Compound A260, (R)-1-([2,4′-bipyridine]-3-carbonyl)-4-(1-(3,5-difluorophenyl)ethyl)piperidine-4-carbonitrile]: the IC50 is below 100 nM.

For `C[C@@H](c1c(F)cccc1F)C1(C#N)CCN(C(=O)c2cccnc2-c2ccncc2)CC1` [Compound A246, (R)-1-([2,4′-bipyridine]-3-carbonyl)-4-(1-(2,6-difluorophenyl)ethyl)piperidine-4-carbonitrile], the IC50 was below 100 nM.

Turning to `N#C[C@@]1(Cc2ccc(F)cc2)C[C@H]2CC[C@@H](C1)N2C(=O)c1cccnc1-c1ccncn1` [Compound A252, (1R,3r,5S)-3-(4-fluorobenzyl)-8-(2-(pyrimidin-4-yl)nicotinoyl)-8-azabicyclo[3.2.1]octane-3-carbonitrile], the IC50 was 100 to 1000 nM.

Regarding `N#CC1(Cc2ccc(OC(F)(F)F)cc2)CCN(C(=O)c2cccnc2-c2ccncn2)CC1` [Compound A217, 1-(2-(pyrimidin-4-yl)nicotinoyl)-4-(4-(trifluoromethoxy)benzyl)piperidine-4-carbonitrile], the IC50 was below 100 nM.

In the case of `CC(c1c(F)cc(F)cc1F)C1(C#N)CCN(C(=O)c2cccnc2-c2ccncn2)CC1` (stereo in doubt) [Compound A271, (R)-1-(2-(pyrimidin-4-yl)nicotinoyl)-4-(1-(2,4,6-trifluorophenyl)ethyl)piperidine-4-carbonitrile], the IC50 was below 100 nM.

Take `C[C@@H]1CN(C(=O)c2cccnc2-c2ccncn2)CC[C@@]1(C#N)Cc1ccc(F)cc1` [Compound A247, (3S,4S)-4-(4-fluorobenzyl)-3-methyl-1-(2-(pyrimidin-4-yl)nicotinoyl)piperidine-4-carbonitrile]: the concentration for half-maximal inhibition (IC50) is below 100 nM.

In the case of `N#CC1(Cc2c(F)cc(C(F)(F)F)cc2F)CCN(C(=O)c2cccnc2-c2ccncc2)CC1` [Compound A280, 1-([2,4′-bipyridine]-3-carbonyl)-4-(2,6-difluoro-4-(trifluoromethyl)benzyl)piperidine-4-carbonitrile], the IC50 was below 100 nM.

On to `N#CC1(Cc2ccc(C3CC3)nc2)CCN(C(=O)c2cccnc2-c2ccncn2)CC1` [Compound A211, 4-((6-cyclopropylpyridin-3-yl)methyl)-1-(2-(pyrimidin-4-yl)nicotinoyl)piperidine-4-carbonitrile], for which the IC50 was below 100 nM.

Take `C[C@H](c1ccc(F)cc1F)C1(C#N)CCN(C(=O)c2cccnc2-c2ccncn2)CC1` [Compound A241, (S)-4-(1-(2,4-difluorophenyl)ethyl)-1-(2-(pyrimidin-4-yl)nicotinoyl)piperidine-4-carbonitrile]: the IC50 was below 100 nM.

Turning to `N#CC1(CCc2ccccc2)CCN(C(=O)c2cccnc2-c2ccncc2)CC1` [Compound A68, 1-([2,4′-bipyridine]-3-carbonyl)-4-phenethylpiperidine-4-carbonitrile], the IC50 lay in the range of 100 to 1000 nM.

Consider `C[C@H]1CN(C(=O)c2cccnc2-c2ccncn2)CC[C@]1(C#N)Cc1ccc(F)cc1` [Compound A248, (3R,4R)-4-(4-fluorobenzyl)-3-methyl-1-(2-(pyrimidin-4-yl)nicotinoyl)piperidine-4-carbonitrile], for which the IC50 is below 100 nM.

Turning to `C[C@H](c1c(F)cccc1F)C1(C#N)CCN(C(=O)c2cccnc2-c2ccncc2)CC1` [Compound A245, (S)-1-([2,4′-bipyridine]-3-carbonyl)-4-(1-(2,6-difluorophenyl)ethyl)piperidine-4-carbonitrile], the IC50 is below 100 nM.

With `N#CC1(Cc2ccc(F)cc2C2CC2)CCN(C(=O)c2cccnc2-c2ccncn2)CC1` [Compound A230, 4-(2-cyclopropyl-4-fluorobenzyl)-1-(2-(pyrimidin-4-yl)nicotinoyl)piperidine-4-carbonitrile], the IC50 is below 100 nM.

As for `C[C@H](c1ccc(F)cc1)C1(C#N)CCN(C(=O)c2cccnc2-c2ccncn2)CC1` [Compound A45, (R)-4-(1-(4-fluorophenyl)ethyl)-1-(2-(pyrimidin-4-yl)nicotinoyl)piperidine-4-carbonitrile], the IC50 was below 100 nM.

`N#CC1(Cc2c(F)cc(F)cc2F)CCN(C(=O)c2cccnc2-c2ccncc2)CC1` [Compound A272, 1-([2,4′-bipyridine]-3-carbonyl)-4-(2,4,6-trifluorobenzyl)piperidine-4-carbonitrile]: the IC50 is below 100 nM.

Take `N#CC1(Cc2ccc(C(F)(F)F)cn2)CCN(C(=O)c2cccnc2-c2ccncn2)CC1` [Compound A228, 1-(2-(pyrimidin-4-yl)nicotinoyl)-4-((5-(trifluoromethyl)pyridin-2-yl)methyl)piperidine-4-carbonitrile]: the IC50 is 100 to 1000 nM.

For the compound `N#CC1(Cc2cc(F)ccc2F)CCN(C(=O)c2cccnc2-c2ccncn2)CC1` [Compound A261, 4-(2,5-difluorobenzyl)-1-(2-(pyrimidin-4-yl)nicotinoyl)piperidine-4-carbonitrile], the concentration for half-maximal inhibition (IC50) is below 100 nM.

In the case of `N#CC1(Cc2cccc(C3CC3)c2)CCN(C(=O)c2cccnc2-c2ccncn2)CC1` [Compound A218, 4-(3-cyclopropylbenzyl)-1-(2-(pyrimidin-4-yl)nicotinoyl)piperidine-4-carbonitrile], the IC50 was below 100 nM.
